Legend:
[1] = tested on: harmful plants such as Stellaria media, Lolium multiflorum, Amaranthus retroflexus, Sinapis alba, Avena sativa and Setaria viridis; experiment: Pre-emergence effect on weeds (greenhouse pot test, visual scoring); type: in vivo; settings: applied pre-emergence at an application rate of 1 kg or less of active substance per hectare; scored visually after 3 to 4 weeks vs untreated controls;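 also: scored as plant damage or reduced emergence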
Excerpt: 1 Pre-emergence Effect on Weeds
Seeds or rhizome pieces of monocotyledonous and dicotyledonous weeds plants are placed in sandy loam soil in plastic pots and covered with soil. The compounds according to the invention which are formulated in the form of wettable powders or emulsion concentrates are then applied to the surface of the soil cover in the form of an aqueous suspension or emulsion at an application rate of 600 to 800 l of water/ha (converted), in various dosages.

[2] = tested on: harmful plants such as Sinapis alba, Echinochloa crus- galli, Lolium multiflorum, Stellaria media, Cyperus iria, Amaranthus retroflexus, Setaria viridis and …; experiment: Post-emergence effect on weeds (greenhouse pot test, visual scoring); type: in vivo; settings: applied post-emergence (three-leaf stage) at an application rate of 1 kg and less of active substance per hectare; scored visually after about 3 to 4 weeks vs untreated controls
Method: 2. Post-emergence Effect on Weeds
Seeds or rhizome pieces of monocotyledonous and dicotyledonous weeds are placed in sandy loam soil in plastic pots, covered with soil and grown in the greenhouse under good growth conditions. Three weeks after sowing, the test plants are treated in the three-leaf stage. The compounds according to the invention which are formulated as wettable powders or as emulsion concentrates are sprayed in various dosages on the green parts of the plants at an application rate of 600 to 800 l of water/ha (converted). After the test plants have remained in the greenhouse for about 3 to 4 weeks under ideal growth conditions, the effect of the preparations is scored visually by comparison with untreated controls. The agents according to the invention also have a good herbicidal post-emergence action against a broad range of economically important grass weeds and dicotyledonous weeds.

| SMILES | herbicidal action against harmful plants, pre-emergence [1] | herbicidal action against harmful plants, post-emergence [2] |
| --- | --- | --- |
| Cc1cccc(CCC(CC2CC2)Nc2nc(N)nc(C(C)C)n2)c1 (stereo not shown) [Example 32-9] | very good herbicidal action | very good herbicidal action |
| CC(C)c1nc(N)nc(NC(CCCCc2ccccc2)C2CC2)n1 (stereo not shown) [Example 30-1] | very good herbicidal action | very good herbicidal action |
| Cc1cccc(CCC(Nc2nc(N)nc(CC(C)C)n2)C2CC2)c1 (stereo not shown) [Example 9-15] | very good herbicidal action | very good herbicidal action |
| COc1cccc(CCC(Nc2nc(N)nc(C(C)C)n2)C2CC2)c1 (stereo not shown) [Example 9-13] | very good herbicidal action | very good herbicidal action |
| CC(C)c1nc(N)nc(NC(CCCc2cccc(Cl)c2)C2CCC2)n1 (stereo not shown) [Example 28-13] | very good herbicidal action | very good herbicidal action |
| CCc1nc(N)nc(NC(CCc2ccccc2)C2CC2)n1 (stereo not shown) [Example 9-2] | very good herbicidal action | very good herbicidal action |
| CC(C)(F)c1nc(N)nc(NC(CCc2cccc(Cl)c2)CC2CC2)n1 (stereo not shown) [Example 32-6] | very good herbicidal action | very good herbicidal action |
| CC(C)c1nc(N)nc(NC(CCc2cccc(F)c2)C2CCC2)n1 (stereo not shown) [Example 4-27] | very good herbicidal action | very good herbicidal action |
| CC(C)(F)c1nc(N)nc(NC(CCc2ccccc2)C2CC2(C)C)n1 (stereo not shown) [Example 10-1] | very good herbicidal action | very good herbicidal action |
| CC(C)(F)c1nc(N)nc(NC(CCc2ccccc2)C2CCCO2)n1 (stereo not shown) [Example 19-5] | very good herbicidal action | very good herbicidal action |
| CC(C)c1nc(N)nc(NC(CCc2ccccc2)C2CCOC2)n1 (stereo not shown) [Example 20-2] | very good herbicidal action | very good herbicidal action |
| CC(C)c1nc(N)nc(NC(CCCCc2ccccc2)C2CCC2)n1 (stereo not shown) [Example 31-3] | very good herbicidal action | very good herbicidal action |
| CC(F)c1nc(N)nc(NC(CCCc2ccccc2)C2CC2)n1 (stereo not shown) [Example 22-3] | very good herbicidal action | very good herbicidal action |
| CC(C)c1nc(N)nc(NC(CCc2ccccc2)CC2CC2)n1 (stereo not shown) [Example 32-1] | very good herbicidal action | very good herbicidal action |
| CC(C)c1nc(N)nc(NC(CCc2cccc(C(F)(F)F)c2)C2CC2)n1 (stereo not shown) [Example 9-11] | very good herbicidal action | very good herbicidal action |
| CC(C)c1nc(N)nc(NC(CCc2ccccc2)c2ccoc2)n1 (stereo not shown) [Example 18-2] | very good herbicidal action | very good herbicidal action |
| CCc1nc(N)nc(NC(CCc2ccccc2)CC2CC2(F)F)n1 (stereo not shown) [Example 33-4] | very good herbicidal action | very good herbicidal action |
| Cc1ccccc1CCC(Nc1nc(N)nc(C(C)C)n1)C1CCC1 (stereo not shown) [Example 4-26] | very good herbicidal action | very good herbicidal action |
| Cc1cccc(CCC(Nc2nc(N)nc(C(C)C)n2)C2CC2)c1 (stereo not shown) [Example 9-12] | very good herbicidal action | very good herbicidal action |
| COc1cccc(CCC(Nc2nc(N)nc(C(C)(C)F)n2)C2CC2)c1 (stereo not shown) [Example 9-14] | very good herbicidal action | very good herbicidal action |
| Cc1nc(N)nc(NC(CCCc2ccccc2)C2CC2)n1 (stereo not shown) [Example 22-8] | very good herbicidal action | very good herbicidal action |

| SMILES | herbicidal action against harmful plants, pre-emergence [1] | herbicidal action against harmful plants, post-emergence [2] |
| --- | --- | --- |
| CC(C)(F)c1nc(N)nc(NC(CCCc2cccc(F)c2)C2CC2)n1 (stereo not shown) [Example 22-24] | very good herbicidal action | very good herbicidal action |
| Cc1cccc(CCCC(Nc2nc(N)nc(C(C)(C)F)n2)C2CC2)c1 (stereo not shown) [Example 22-27] | very good herbicidal action | very good herbicidal action |
| CC(C)(F)c1nc(N)nc(NC(CCc2ccccc2)C2CCCC2)n1 (stereo not shown) [Example 8-2] | very good herbicidal action | very good herbicidal action |
| COc1cccc(CCCC(Nc2nc(N)nc(C(C)C)n2)C2CCC2)c1 (stereo not shown) [Example 28-20] | very good herbicidal action | very good herbicidal action |
| CC(C)(F)c1nc(N)nc(NC(CCc2cccc(F)c2)C2CCC2)n1 (stereo not shown) [Example 4-28] | very good herbicidal action | very good herbicidal action |
| Nc1nc(NC(CCCCc2ccccc2)C2CCC2)nc(C(F)(F)F)n1 (stereo not shown) [Example 31-2] | very good herbicidal action | very good herbicidal action |
| Cc1nc(N)nc(NC(CCc2ccccc2)C2CCC2)n1 (stereo not shown) [Example 4-3] | very good herbicidal action | very good herbicidal action |
| CCc1nc(N)nc(NC(CCCc2ccccc2)C2CC2)n1 (stereo not shown) [Example 22-9] | very good herbicidal action | very good herbicidal action |
| CC(C)(F)c1nc(N)nc(NC(CCc2cccc(C(F)(F)F)c2)C2CC2)n1 (stereo not shown) [Example 9-6] | very good herbicidal action | very good herbicidal action |
| Cc1cccc(CCCC(Nc2nc(N)nc(C(C)C)n2)C2CC2)c1 (stereo not shown) [Example 22-26] | very good herbicidal action | very good herbicidal action |
| CC(C)c1nc(N)nc(NC(CCc2ccccc2)C2CCCC2)n1 (stereo not shown) [Example 8-1] | very good herbicidal action | very good herbicidal action |
| Cc1ccccc1CCC(Nc1nc(N)nc(C(C)(C)F)n1)C1CCC1 (stereo not shown) [Example 4-25] | very good herbicidal action | very good herbicidal action |
| CC(C)c1nc(N)nc(NC(CCc2cccc(Cl)c2)CC2CC2)n1 (stereo not shown) [Example 32-5] | very good herbicidal action | very good herbicidal action |
| CC(C)(F)c1nc(N)nc(NC(CCCCc2ccccc2)C2CC2)n1 (stereo not shown) [Example 30-2] | very good herbicidal action | very good herbicidal action |
| CC(C)(F)c1nc(N)nc(NC(CCCCc2ccccc2)C2CCC2)n1 (stereo not shown) [Example 31-1] | very good herbicidal action | very good herbicidal action |
| CC(C)(F)c1nc(N)nc(NC(CCc2ccccc2)c2ccoc2)n1 (stereo not shown) [Example 18-1] | very good herbicidal action | very good herbicidal action |
| Cc1cccc(CCC(Nc2nc(N)nc(C(C)(C)F)n2)C2CC2)c1 (stereo not shown) [Example 9-16] | very good herbicidal action | very good herbicidal action |
| CC(C)c1nc(N)nc(NC(CCc2cccc(Cl)c2)C2CCC2)n1 (stereo not shown) [Example 4-10] | very good herbicidal action | very good herbicidal action |
| CC(C)Cc1nc(N)nc(NC(CCc2ccccc2)C2CC2)n1 (stereo not shown) [Example 9-1] | very good herbicidal action | very good herbicidal action |
| COc1cccc(CCC(CC2CC2)Nc2nc(N)nc(C(C)(C)F)n2)c1 (stereo not shown) [Example 32-12] | very good herbicidal action | very good herbicidal action |

Reference: patent publication US20030162661A1, “2,4-Diamino-1,3,5-triazines, their preparation, and their use as herbicides and plant growth regulators” (priority 1998, published 2003)
